From patent US20250099420A1, “SMALL MOLECULE MODULATORS OF GPR139 COMPLEX” (University of Florida Research Foundation, Incorporated, priority 2022, published 2025)
Where two headings read alike, the source gives them in different places.

How the values were obtained:
[1] = tested on: parental HEK cells; experiment: HEK parental Agonist Counterscreen Assay (non-transfected cells); format: cell-based; settings: for Averaged Max % Response (±St. Dev.): activity relative to known control
Text: The high control for the agonist counterscreen was Forskolin not acetylcholine.

[2] = molecular target: T1, GPR139 (Homo sapiens, UniProt Q6DWJ6); experiment: GPR139 Agonist titration / agonist counterscreen assay (calcium detection, HEK-GPR139 cells); format: cell-based; parameters: expressed in transfected cells; host or cells: HEK Aequorin cells, Maxcyte transient transfection; settings: GPR139 Agonist Activity; for Averaged Max % Response (±St. Dev.): activity relative to known control; for EC50: read-out: EC50
T1 sequence (Q6DWJ6 1-353): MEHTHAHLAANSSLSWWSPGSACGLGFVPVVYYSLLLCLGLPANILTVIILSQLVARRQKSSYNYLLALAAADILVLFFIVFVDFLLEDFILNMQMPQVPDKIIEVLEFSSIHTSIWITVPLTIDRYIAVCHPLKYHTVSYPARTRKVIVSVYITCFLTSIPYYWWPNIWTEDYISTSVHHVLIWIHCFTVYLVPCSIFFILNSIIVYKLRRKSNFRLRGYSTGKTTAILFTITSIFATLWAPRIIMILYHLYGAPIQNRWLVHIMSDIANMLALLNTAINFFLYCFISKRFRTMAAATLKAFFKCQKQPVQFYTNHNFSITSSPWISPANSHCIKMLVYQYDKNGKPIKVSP
Protocol: GPR activity was assessed using a calcium detection assay. […] Negative control samples were treated with DMSO. […] Intracellular calcium was measured using Calcium 5.

[3] = Homo sapiens, HEK293, HEK Agonist Activity section of Table 4 (parental HEK counterscreen)
[4] = values printed in E-notation without unit
[5] = HEK Agonist Activity section of Table 4 (parental HEK counterscreen)

Compound	Lipophilic Efficiency (logD) ([1]; HEK Agonist Activity section)	Lipophilic Efficiency (logP) ([1]; HEK Agonist Activity section)	Averaged Max % Response (±St. Dev.) [2]	Lipophilic Efficiency (logD) ([2]; based on logD)	Lipophilic Efficiency (logP) ([2]; based on logP)	Hill Slope ([2]; fitted dose-response curve)	Efficiency Ligand ([2]; ligand efficiency)	EC50 [2, 4]	Efficiency Ligand [2]	Hill Slope [2]	Lipophilic Efficiency (logD) [2]	Lipophilic Efficiency (logP) [2]	EC50 ([2]; HEK-GPR139 cells)	Lipophilic Efficiency (logD) ([1]; HEK Agonist Activity)	Lipophilic Efficiency (logP) ([1]; HEK Agonist Activity)	Averaged Max % Response (±St. Dev.) ([1]; HEK Agonist Activity section)	EC50 [1, 3]	EC50 [1, 5]	Averaged Max % Response (±St. Dev.) ([1]; HEK Agonist Activity)	EC50 ([1]; HEK Agonist Activity, parental non-transfected HEK cells)
Cc1cccc(COc2coc(COc3nccn3C)cc2=O)c1 [SR-01000916033]	2.68	2.68	104.22 ± 8.56%	5.04	5.04	0.34	0.42	61.9 nM	–	–	–	–	–	–	–	25.93 ± 6.51%	> 14100 nM	–	–	–
Cc1ccc(CN2CCN(CC(=O)N3CC(C)CC(C)C3)C2=O)cc1 (stereo not shown) [SR-01000150389]	2.56	2.56	112.97 ± 21.84%	4.43	4.43	0.95	0.38	189 nM	–	–	–	–	–	–	–	0.25 ± 10.83%	–	> 14100 nM	–	–
COc1ccc(C(C)N2CC34C=CC(O3)C(C(=O)OCC(C)C)C4C2=O)cc1 (stereo not shown) [SR-01000114500]	2.32	2.32	93.61 ± 11.95%	4.21	4.21	1.06	0.34	184 nM	–	–	–	–	–	–	–	4.75 ± 6.36%	–	> 14100 nM	–	–
O=C(CCc1ccccc1)Nc1nnc(Cc2cccs2)o1 [SR-01000920660]	1.83	1.83	83.52 ± 6.71%	–	–	–	–	–	0.41	1.17	3.39	3.39	387 nM	–	–	−18.29 ± 7.41%	> 14100 nM	–	–	–
O=C(CN1CCN(Cc2ccc(F)cc2Cl)C1=O)NCc1ccccc1Cl [SR-01000125622]	1.80	1.80	99.14 ± 16.79%	3.63	3.63	0.99	0.35	208 nM	–	–	–	–	–	–	–	−10.20 ± 10.64%	> 14100 nM	–	–	–
C#CC1=C(CCCc2ccc(CC)cc2)CC(CCc2ccccc2CC)=C1 [SR-01000363853]	1.79	1.79	87.50 ± 15.37%	–	–	–	–	–	0.29	0.77	2.73	2.73	–	–	–	−6.20 ± 7.21%	> 14100 nM	–	–	–
O=C(O)COc1cc(Br)c(Br)c(Br)c1O [SR-01000028953]	5.29	1.52	88.05 ± 4.24%	–	–	–	–	–	0.54	0.80	6.30	2.53	–	–	–	1.36 ± 9.86%	> 15300 nM	–	–	–
O=C(Cn1nc(Cc2ccncc2)c2ccccc2c1=O)N1CCCc2ccccc21 [SR-01000151917]	1.92	1.92	110.81 ± 5.15%	–	–	–	–	–	0.28	1.73	3.34	3.33	537 nM	–	–	10.70 ± 4.71%	> 14100 nM	–	–	–
COP(=O)(CN(CCc1ccc(Cl)cc1)C(=O)Nc1ccc(Cl)c(Cl)c1)OC [SR-01000584158]	–	–	123.61 ± 28.77%	2.25	2.25	0.47	0.37	36.6 nM	–	–	–	–	–	−0.34	−0.34	–	–	–	0.77 ± 6.52%	> 14100 nM
CSc1cccc(NC(=O)C2C3C=CC4(O3)C2C(=O)N(C(C)c2ccccc2)C4C(=O)NC2CCCC(C)C2C)c1 (stereo not shown) [SR-01000545824]	−0.052	−0.052	103.05 ± 12.22%	1.92	1.92	0.41	0.23	145 nM	–	–	–	–	–	–	–	−0.19 ± 3.69%	–	> 13600 nM	–	–
C=C(Nc1ccc(-c2cn[nH]c2)cc1)N(C)Cc1cccc(C(=O)CC)c1 [SR-00000007008]	1.85	1.85	75.98 ± 6.44%	3.98	3.98	0.79	0.36	–	–	–	–	–	–	–	–	−8.12 ± 2.24%	> 14100 nM	–	–	–
O=c1cc(-c2ccccc2)[nH]c2nc(OCc3cccc([N+](=O)[O-])c3)nn12 [SR-01000289377]	1.72	1.72	79.17 ± 5.74%	–	–	–	–	–	0.32	1.25	3.01	3.01	727 nM	–	–	−0.70 ± 7.45%	> 14100 nM	–	–	–
COc1cc(C(=O)NNC(=O)CCc2c[nH]c3ccccc23)ccc1OC(C)C [SR-01000068919]	1.78	1.78	93.45 ± 21.44%	–	–	–	–	–	0.31	0.88	3.27	3.27	460 nM	–	–	39.50 ± 8.66%	> 14200 nM	–	–	–

Further lines, with some results ahead:

Lipophilic Efficiency (logD) ([1]; HEK Agonist Activity section)	Lipophilic Efficiency (logP) ([1]; HEK Agonist Activity section)	Averaged Max % Response (±St. Dev.) [2]	Lipophilic Efficiency (logD) ([2]; based on logD)	Lipophilic Efficiency (logP) ([2]; based on logP)	Hill Slope ([2]; fitted dose-response curve)	Efficiency Ligand ([2]; ligand efficiency)	EC50 [2, 4]	Efficiency Ligand [2]	Hill Slope [2]	Lipophilic Efficiency (logD) [2]	Lipophilic Efficiency (logP) [2]	EC50 ([2]; HEK-GPR139 cells)	Lipophilic Efficiency (logD) ([1]; HEK Agonist Activity)	Lipophilic Efficiency (logP) ([1]; HEK Agonist Activity)	Compound	Averaged Max % Response (±St. Dev.) ([1]; HEK Agonist Activity section)	EC50 [1, 3]	EC50 [1, 5]	Averaged Max % Response (±St. Dev.) ([1]; HEK Agonist Activity)	EC50 ([1]; HEK Agonist Activity, parental non-transfected HEK cells)
1.45	1.45	90.02 ± 28.06%	–	–	–	–	–	0.36	1.37	2.59	2.59	1000 nM	–	–	CC(Oc1ccccc1)C(=O)NCCn1ccc2ccccc21 (stereo not shown) [SR-01000124163]	−3.45 ± 3.02%	> 14100 nM	–	–	–
3.51	3.51	101.07 ± 20.22%	5.28	5.28	0.87	0.33	228 nM	–	–	–	–	–	–	–	CC12C=CC3(CN(Cc4ccccc4)C(=O)C3C1C(=O)NCc1ccco1)O2 (stereo not shown) [SR-01000582958]	10.03 ± 5.09%	–	> 13400 nM	–	–
0.46	0.46	105.03 ± 11.34%	–	–	–	–	–	0.33	0.55	1.49	1.49	1300 nM	–	–	CCOC(=O)c1cccc(NC(=O)Cc2cccc3ccccc23)c1 [SR-01000267161]	13.91 ± 0.63%	–	> 14100 nM	–	–
1.49	1.49	93.88 ± 11.00%	–	–	–	–	–	0.25	0.32	2.28	2.28	2300 nM	–	–	O=C(NCCS(=O)(=O)N1CCc2ccccc2C1)C(c1ccccc1)c1ccccc1 [SR-01000911742]	−12.80 ± 5.17%	> 14100 nM	–	–	–
2.04	2.04	93.05 ± 4.55%	–	–	–	–	–	0.35	0.94	3.68	3.67	339 nM	–	–	O=C(CCc1nc2ccccc2s1)NNC(=O)CSc1ccccc1F [SR-01000069574]	7.10 ± 4.83%	> 14500 nM	–	–	–
1.38	1.38	124.00 ± 20.16%	3.11	3.11	0.62	0.44	260 nM	–	–	–	–	–	–	–	COc1ccc(CCNC(=O)Nc2ccc(C)cc2)cc1 [SR-01000271555]	14.71 ± 4.12%	> 14100 nM	–	–	–
